Data: patent US5912414A, “Nucleic acid fragments, chimeric genes and methods for increasing the methionine content of the seeds of plants” (priority 1996, dated 1999)

What was measured:
[1] = system: E. coli strain Gif106M1 transformed with pBT436; assay: Growth inhibition of Gif106M1 transformed with pBT436 on supplemented M9 media; type: cell-based; details: M9 media with arginine, isoleucine, ampicillin; reversed by threonine plus methionine
Excerpt: To establish that the cloned lysC gene was functional, pBT436 was transformed into E. coli strain Gif106M1 (E. coli Genetic Stock Center strain CGSC-5074) which has mutations in each of the three E. coli AK genes [Theze et al. (1974) J. Bacteriol. 117:133-143]. This strain lacks all AK activity and therefore requires diaminopimelate (a precursor to lysine which is also essential for cell wall biosynthesis), threonine and methionine.
Addition of lysine (or diaminopimelate which is readily converted to lysine in vivo) at a concentration of approximately 0.2 mM to the growth medium inhibits the growth of Gif106M1 transformed with pBT436.M9 media [see Sambrook et al. (1989) Molecular Cloning: a Laboratory Manual, Cold Spring Harbor Laboratory Press] supplemented with the arginine and isoleucine, required for Gif106M1 growth, and ampicillin, to maintain selection for the pBT436 plasmid, was used. This inhibition is reversed by addition of threonine plus methionine to the growth media. […] This property of pBT436-transformed Gif106M1 was used to select for mutations in lysC that encoded lysine-insensitive AKIII.

wild type AKIII = target: T1, wild type AKIII (Escherichia coli, UniProt P08660); assay: Inhibition of wild type AKIII aspartokinase activity by lysine; type: biochemical, E. coli
T1 construct: made in house; host or cells: E. coli Gif106M1 transformed with pBT436 (the plasmid of the cloned wild type lysC gene)
T1 sequence (P08660 2-449): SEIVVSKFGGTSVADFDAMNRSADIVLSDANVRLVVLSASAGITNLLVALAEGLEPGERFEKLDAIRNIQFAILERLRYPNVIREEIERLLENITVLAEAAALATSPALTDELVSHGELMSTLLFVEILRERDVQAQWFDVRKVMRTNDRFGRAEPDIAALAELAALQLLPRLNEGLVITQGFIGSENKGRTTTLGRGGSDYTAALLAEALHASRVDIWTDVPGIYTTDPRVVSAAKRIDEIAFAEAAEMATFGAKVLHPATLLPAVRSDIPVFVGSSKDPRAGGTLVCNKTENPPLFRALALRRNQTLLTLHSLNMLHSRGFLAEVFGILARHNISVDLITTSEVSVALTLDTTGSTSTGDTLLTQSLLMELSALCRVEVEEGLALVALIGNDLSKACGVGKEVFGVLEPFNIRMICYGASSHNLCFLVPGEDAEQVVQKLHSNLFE
Protocol: Single colonies of Gif106M1 transformed with pBT436 were picked and resuspended in 200 μL of a mixture of 100 μL 1% lysine plus 100 μL of M9 media. The entire cell suspension containing 10^7 -10^8 cells was spread on a petri dish containing M9 media supplemented with the arginine, isoleucine, and ampicillin. Sixteen petri dishes were thus prepared. From 1 to 20 colonies appeared on 11 of the 16 petri dishes. One or two (if available) colonies were picked and retested for lysine resistance and from this nine lysine-resistant clones were obtained. Plasmid DNA was prepared from eight of these and re-transformed into Gif106M1 to determine whether the lysine resistance determinant was plasmid-borne. Six of the eight plasmid DNAs yielded lysine-resistant colonies. Three of these six carried lysC genes encoding AKIII that was uninhibited by 15 mM lysine, whereas wild type AKIII is 50% inhibited by 0.3-0.4 mM lysine and >90% inhibited by 1 mM lysine (see Example 2 for details).
(§1) Assay mix (for 12×1.0 mL or 48×0.25 mL assays):
(§2) Each 1.5 ml eppendorf assay tube contains: […]
(§3) Spin for 2 min in eppendorf centrifuge tube.

[2] = system: lysine-insensitive AKIII (mutant lysC genes M2, M3, M4); assay: Inhibition by lysine of AKIII encoded by mutant lysC genes (lysine-resistant clones); type: biochemical, E. coli; details: 15 mM lysine; three of six lysine-resistant plasmids
AKII-HDHII (AK activity) = target: T2, AKII-HDHII (AK activity) (Escherichia coli, UniProt P00562); assay: Inhibition of AK activity of clone 5 extract (metL, AKII-HDHII) by pathway end-products; type: biochemical, E. coli; details: 30 mM end-product; extract from clone 5
T2 construct: made in house; host or cells: E. coli BL21(DE3), pBT430-derived expression vector; sonicated cell extract of clone 5 (pBT718)
T2 sequence (P00562 other isoform, or with tags, fused parts or gaps): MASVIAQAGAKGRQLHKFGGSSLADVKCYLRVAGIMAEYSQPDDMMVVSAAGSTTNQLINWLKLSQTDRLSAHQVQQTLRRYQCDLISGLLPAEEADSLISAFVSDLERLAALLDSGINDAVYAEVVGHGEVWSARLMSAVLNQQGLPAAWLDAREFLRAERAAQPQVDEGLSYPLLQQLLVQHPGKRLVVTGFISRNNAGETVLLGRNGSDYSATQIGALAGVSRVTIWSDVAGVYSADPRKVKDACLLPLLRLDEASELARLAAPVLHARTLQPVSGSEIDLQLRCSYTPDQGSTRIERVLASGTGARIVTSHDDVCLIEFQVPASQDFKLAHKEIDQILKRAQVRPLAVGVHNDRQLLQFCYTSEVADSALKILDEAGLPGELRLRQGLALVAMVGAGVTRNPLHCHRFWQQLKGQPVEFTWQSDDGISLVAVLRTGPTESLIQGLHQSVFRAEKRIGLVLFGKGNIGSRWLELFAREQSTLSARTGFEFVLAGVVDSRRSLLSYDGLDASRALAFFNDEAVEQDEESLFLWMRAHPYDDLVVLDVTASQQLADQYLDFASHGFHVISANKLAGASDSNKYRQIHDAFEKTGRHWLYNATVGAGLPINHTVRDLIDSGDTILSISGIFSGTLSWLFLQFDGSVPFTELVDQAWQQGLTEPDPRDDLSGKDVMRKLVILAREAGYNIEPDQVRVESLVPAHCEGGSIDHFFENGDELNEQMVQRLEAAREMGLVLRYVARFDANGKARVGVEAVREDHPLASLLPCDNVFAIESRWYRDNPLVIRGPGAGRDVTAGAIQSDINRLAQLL
Protocol: (§4) Cultures were grown in TB medium containing ampicillin (100 mg/L) at 37° C. overnight. The cells were collected by centrifugation and resuspended in 1/25th the original culture volume in 50 mM NaCl; 50 mM Tris-Cl, pH 7.5; 1 mM EDTA, and frozen at -20° C., thawed at 37° C. and sonicated, in an ice-water bath, to lyse the cells. The lysate was centrifuged at 4° C. for 5 min at 12,000 rpm. The supernatant was removed and the pellet was resuspended in the above buffer.
as §1, §2, §3
(§5) Two extracts also had high levels of AK enzyme activity. These two extracts were then tested for inhibition of AK or HDH activity by the pathway end-products, lys, thr and met.

[3] = target: T3, AKII-HDHII (HDH activity) (Escherichia coli, UniProt P00562); assay: Inhibition of HDH activity of clone 5 extract (metL, AKII-HDHII) by pathway end-products; type: biochemical, E. coli; details: 30 mM end-product; extract from clone 5
T3 construct: made in house; host or cells: E. coli BL21(DE3), pBT430-derived expression vector; sonicated cell extract of clone 5 (pBT718)
T3 sequence (P00562 other isoform, or with tags, fused parts or gaps): as above
Protocol: as §4
The supernatant fractions were assayed for HDH enzyme activities to identify clones expressing functional proteins. HDH activity was assayed as shown below: […]
Make Mixture of above reagents with amounts multiplied by number of assays. Use 0.9 mls of mix for 1 ml assay; 180 μl of mix for 0.2 ml assay in microtiter dish
to 1/2 the assay mix; remaining 1/2 lacks ASA to serve as blank
Add enzyme extract last to start reaction. Incubate at ~30° C.; monitor NADPH oxidation at […]. 1 unit oxidizes 1 μmol NADPH/min at 30° C. in the 1 ml reaction.
as §5

Compound | concentration in the growth medium that inhibits growth [1] | inhibition at 1000 µM (wild type AKIII; read-out: inhibition of wild type AKIII) [%] | IC50 (wild type AKIII; wild type AKIII from cloned lysC (pBT436), read-out: lysine concentration giving 50% inhibition of wild type AKIII) [µM] | inhibition of AKIII encoded by mutant lysC genes [2] | inhibition of AK activity (AKII-HDHII (AK activity)) | inhibition of HDH activity [3]
NC(CCCC(N)C(=O)O)C(=O)O (centres unmarked) [diaminopimelate] | approximately 0.2 mM |  |  |  |  | 
NCCCC[C@H](N)C(=O)O [lysine] | approximately 0.2 mM | > 90 | 300 to 400 | uninhibited | Neither the AK nor the HDH activity of the extract from clone 5 was inhibited | Neither the AK nor the HDH activity of the extract from clone 5 was inhibited
CSCC[C@H](N)C(=O)O [met, methionine] |  |  |  |  | Neither the AK nor the HDH activity of the extract from clone 5 was inhibited | Neither the AK nor the HDH activity of the extract from clone 5 was inhibited
C[C@@H](O)[C@H](N)C(=O)O [thr, threonine] |  |  |  |  | Neither the AK nor the HDH activity of the extract from clone 5 was inhibited | Neither the AK nor the HDH activity of the extract from clone 5 was inhibited
